The values that follow come from patent US20230011869A1 (Hoffmann-La Roche Inc., priority 2018, published 2023).

Where a name gives a salt, the structure may show the parent alone. Read-outs that look alike come from different tables or passages of the source.

As a reminder, the IC90 is the point of the concentration-response curve where the effect stands at 90%.

The subject of the experiment is Acinetobacter baumannii ATCC17961. Description: Antimicrobial susceptibility testing: 90% growth inhibitory concentration (IC90) determination, Iso-Sensitest broth. In kind it is cell-based. Particulars: read-out: ATCC17961 IC90. The method, then: Antimicrobial Susceptibility Testing:
90% Growth Inhibitory Concentration (IC90) Determination
The in vitro antimicrobial activity of the compounds was determined according to the following procedure:
The assay used a 10-points Iso-Sensitest broth medium to measure quantitatively the in vitro activity of the compounds against Acinetobacter baumannii ATCC17978 and Acinetobacter baumannii ATCC17961.
Stock compounds in DMSO were serially twofold diluted (e.g. range from 50 to 0.097 μM final concentration) in 384 wells microtiter plates and inoculated with 49 μl the bacterial suspension in Iso-Sensitest medium to have a final cell concentration of 5×10^(5) CFU/ml in a final volume/well of 50 ul/well. Microtiter plates were incubated at 35±2° C.
Bacterial cell growth was determined with the measurement of optical density at λ=600 nm each 20 minutes over a time course of 16 h. Growth inhibition was calculated during the logarithmic growth of the bacterial cells with determination of the concentration inhibiting 50% (IC50) and 90% (IC90) of the growth.
Table 1 provides the 90% growth inhibitory concentrations (IC90) in micromoles per liter of the compounds of present invention obtained against the strain Acinetobacter baumannii ATCC17978 and Acinetobacter baumannii ATCC17961.

The mark [1] stands for this setting: Acinetobacter baumannii, ATCC17961, 16 h, 90% growth inhibitory concentration, Acinetobacter baumannii ATCC17961, Iso-Sensitest broth, OD 600 nm over 16 h.
Where [2] appears, read: Acinetobacter baumannii, ATCC17961, 16 h.

For `COc1ccc(-c2cnc3c(Nc4ccc(C(=O)N5CCN(C(=O)[C@@H]6CCC(C)(C)N6)CC5)c(C)c4)nccn23)c(F)c1F` [Example 77, (S)-(4-(4-((3-(2,3-difluoro-4-methoxyphenyl)imidazol[1,2-a]pyrazin-8-yl)amino)-2-methylbenzoyl)piperazin-1-yl)(5,5-dimethylpyrrolidin-2-yl)methanone hydrochloride], the IC90 under setting [1] came to 0.083 µM.
`Cc1cc(Nc2nccn3c(-c4ccc(OCC#N)c(F)c4F)cnc23)ccc1C(=O)N1CCN(C(=O)[C@@H]2CCNC2)CC1` [Example 198, 2-[2,3-difluoro-4-[8-[3-methyl-4-[4-[(3R)-pyrrolidine-3-carbonyl]piperazine-1-carbonyl]anilino]imidazo[1,2-a]pyrazin-3-yl]phenoxy] acetonitrile formate]: the IC90 under setting [1] stood at 0.039 µM.
Same read-out and setting: then `CCc1cc(Nc2nccn3c(-c4ccc(OC)c(F)c4F)cnc23)ccc1C(=O)N1CCNCC1` [Example 466], with 0.175 µM; and `COc1ccc(-c2cnc3c(Nc4ccc(C(=O)N5CCC(C(=O)NC[C@H]6O[C@H](O)[C@H](N)[C@@H](O)[C@@H]6O)CC5)c(C)c4)nccn23)c(F)c1F` [Example 584, N-(((2R,3S,4R,5R,6S)-5-amino-3,4,6-trihydroxytetrahydro-2H-pyran-2-yl)methyl)-1-(4-((3-(2,3-difluoro-4-methoxyphenyl)imidazo[1,2-a]pyrazin-8-yl)amino)-2-methylbenzoyl)piperidine-4-carboxamide], with 0.164 µM; and `Cc1cc(Nc2nccn3c(-c4ccc(OC(F)F)cc4)cnc23)ccc1C(=O)N1CCN(C(=O)N[C@@H]2CNC[C@H]2O)CC1` (racemic) [Example 170, 4-[4-[[3-[4-(difluoromethoxy)phenyl]imidazo[1,2-a]pyrazin-8-yl]amino]-2-methyl-benzoyl]-N-[rac-(3R,4R)-4-hydroxypyrrolidin-3-yl]piperazine-1-carboxamide hydrochloride], with 0.035 µM.
`COc1ccc(-c2cnc3c(Nc4ccc(C(=O)N5CCC(C(=O)NC[C@H](O)[C@@H](O)CN)CC5)c(C)c4)nccn23)c(F)c1F` [Example 294, N-[(2S,3S)-4-amino-2,3-dihydroxybutyl]-1-[4-[[3-(2,3-difluoro-4-methoxyphenyl)imidazo[1,2-a]pyrazin-8-yl]amino]-2-methylbenzoyl]piperidine-4-carboxamide]: the IC90 under setting [1] turned out to be 0.16 µM.
Consider `COc1ccc(-c2cnc3c(Nc4ccc(C(=O)N5CCC(CN)CC5)c(C)c4)nccn23)cc1` [Example 293, [4-(aminomethyl)piperidin-1-yl]-[4-[[3-(4-methoxyphenyl)imidazo[1,2-a]pyrazin-8-yl]amino]-2-methylphenyl]methanone], for which the IC90 (90% growth inhibitory concentration, Acinetobacter baumannii ATCC17961, Iso-Sensitest broth, OD 600 nm over 16 h) came to 0.141 µM.
Turning to `CC[C@@]1(O)CN[C@H](C(=O)N2CCN(C(=O)c3ccc(Nc4nccn5c(-c6ccc(OCC#N)c(F)c6F)cnc45)cc3C)CC2)C1` [Example 229, 2-[4-[8-[4-[4-[(2S,4S)-4-ethyl-4-hydroxy-pyrrolidine-2-carbonyl]piperazine-1-carbonyl]-3-methyl-anilino]imidazo[1,2-a]pyrazin-3-yl]-2,3-difluoro-phenoxy]acetonitrile formate], under setting [1], the IC90 was determined as 0.044 µM.
For `Cc1cc(Nc2nccn3c(-c4ccc(OCC#N)c(F)c4Cl)cnc23)ccc1C(=O)N1CCN(C(=O)N2CCO[C@@H](CN)C2)CC1` [Example 158, 2-[4-[8-[4-[4-[(2S)-2-(aminomethyl)morpholine-4-carbonyl]piperazine-1-carbonyl]-3-methyl-anilino]imidazo[1,2-a]pyrazin-3-yl]-3-chloro-2-fluoro-phenoxy]acetonitrile formate], the IC90 under setting [1] stood at 0.074 µM.
Same read-out and setting: then `COc1ccc(-c2cnc3c(Nc4ccc(C(=O)N5CCN(C(=O)[C@@H]6C[C@@H](O)CN6)CC5)c(C)c4)nccn23)c(F)c1F` [Example 184, [4-[[3-(2,3-difluoro-4-methoxy-phenyl)imidazo[1,2-a]pyrazin-8-yl]amino]-2-methyl-phenyl]-[4-[(2S,4R)-4-hydroxypyrrolidine-2-carbonyl]piperazin-1-yl]methanone hydrochloride], with 0.041 µM; and `COc1ccc(-c2cnc3c(Nc4ccc(C(=O)N5CCNCC5)c(C)c4)nccn23)c(F)c1F` [Example 141, [4-[[3-(2,3-difluoro-4-methoxyphenyl)imidazo[1,2-a]pyrazin-8-yl]amino]-2-methylphenyl]-piperazin-1-ylmethanone], with 0.117 µM.
Turning to `Cc1cc(Nc2nccn3c(-c4ccc(OCC#N)c(F)c4Cl)cnc23)ccc1C(=O)N1CCN(C(=O)[C@H]2CCNC2)CC1` [Example 213, 2-[3-chloro-2-fluoro-4-[8-[3-methyl-4-[4-[(3S)-pyrrolidine-3-carbonyl]piperazine-1-carbonyl]anilino]imidazo[1,2-a]pyrazin-3-yl]phenoxy] acetonitrile formate], under setting [1], the IC90 worked out at 0.033 µM.
For `COc1ccc(-c2cnc3c(Nc4ccc(C(=O)N5CCN(C(=O)N6CCN[C@@H]([C@@H](C)O)C6)CC5)c(C)c4)nccn23)c(F)c1F` [Example 289, [4-[[3-(2,3-difluoro-4-methoxyphenyl)imidazo[1,2-a]pyrazin-8-yl]amino]-2-methylphenyl]-[4-[(3R)-3-[(1R)-1-hydroxyethyl]piperazine-1-carbonyl]piperazin-1-yl]methanone; hydrochloride], the IC90 under setting [2] worked out at 0.089 µM.
Regarding `COc1ccc(-c2cnc3c(Nc4ccc(C(=O)N5CCC(C(=O)N6CCN[C@@H]([C@@H](C)O)C6)CC5)c(C)c4)nccn23)c(F)c1F` [Example 292, [4-[[3-(2,3-difluoro-4-methoxyphenyl)imidazo[1,2-a]pyrazin-8-yl]amino]-2-methylphenyl]-[4-[(3R)-3-[(1R)-1-hydroxyethyl]piperazine-1-carbonyl]piperidin-1-yl]methanone; hydrochloride], the IC90 under setting [2] turned out to be 0.123 µM.
On to `Cc1cc(Nc2nccn3c(-c4ccc(OCC#N)c(F)c4F)cnc23)ccc1C(=O)N1CCN(C(=O)[C@H]2CCNC[C@H]2O)CC1` [Example 189, 2-[2,3-difluoro-4-[8-[4-[4-[(3S,4S)-3-hydroxypiperidine-4-carbonyl]piperazine-1-carbonyl]-3-methyl-anilino]imidazo[1,2-a]pyrazin-3-yl]phenoxy] acetonitrile formate], for which the IC90 under setting [1] is 0.06 µM.
With `COc1ccc(-c2cnc3c(Nc4ccc(C(=O)N5CCN(S(=O)(=O)[C@H]6CCNC6)CC5)c(C)c4)nccn23)c(F)c1F` [Example 297, [4-[[3-(2,3-difluoro-4-methoxyphenyl)imidazo[1,2-a]pyrazin-8-yl]amino]-2-methylphenyl]-[4-[(3S)-pyrrolidin-3-yl]sulfonylpiperazin-1-yl]methanone], the IC90 under setting [1] was determined as 0.192 µM.
For the molecule `Cc1cc(Nc2nccn3c(-c4ccc(OCC#N)c(F)c4Cl)cnc23)ccc1C(=O)N1CCN(C(=O)[C@@H]2CCNC2)CC1` [Example 212, 2-[3-chloro-2-fluoro-4-[8-[3-methyl-4-[4-[(3R)-pyrrolidine-3-carbonyl]piperazine-1-carbonyl]anilino]imidazo[1,2-a]pyrazin-3-yl]phenoxy] acetonitrile formate], under setting [1], the IC90 is 0.034 µM.
Regarding `CCc1cc(Nc2nccn3c(-c4ccc(OC(F)F)c(F)c4F)cnc23)ccc1C(=O)N1CCC(C(=O)N2C[C@@H]3C[C@H]2CN3)CC1` [Example 592, (4-((1S,4S)-2,5-diazabicyclo[2.2.1]heptane-2-carbonyl)piperidin-1-yl)(4-((3-(4-(difluoromethoxy)-2,3-difluorophenyl)imidazo[1,2-a]pyrazin-8-yl)amino)-2-ethylphenyl)methanone 2,2,2-trifluoroacetate formate], the IC90 under setting [2] was found to be 0.038 µM.
With `Cc1cc(Nc2nccn3c(-c4ccc(OCC#N)c(F)c4F)cnc23)ccc1C(=O)N1CCN(C(=O)C2(O)CCNCC2)CC1` [Example 206, 2-[2,3-difluoro-4-[8-[4-[4-(4-hydroxypiperidine-4-carbonyl)piperazine-1-carbonyl]-3-methyl-anilino]imidazo[1,2-a]pyrazin-3-yl]phenoxy] acetonitrile formate], the IC90 under setting [1] worked out at 0.036 µM.
In the case of `Cc1cc(Nc2nccn3c(-c4ccc(OCC#N)c(F)c4Cl)cnc23)ccc1C(=O)N1CCN(C(=O)[C@H]2CCNC[C@@H]2O)CC1` [Example 220, 2-[3-chloro-2-fluoro-4-[8-[4-[4-[(3R,4S)-3-hydroxypiperidine-4-carbonyl]piperazine-1-carbonyl]-3-methyl-anilino]imidazo[1,2-a]pyrazin-3-yl]phenoxy] acetonitrile formate], under setting [1], the IC90 came out at 0.064 µM.
As to `COc1ccc(-c2cnc3c(Nc4ccc(C(=O)N5CCN(C(=O)[C@]67CNCC[C@H]6OC(C)(C)O7)CC5)c(C)c4)nccn23)c(F)c1F` (stereo in doubt) [Example 577, rel-(4-(4-((3-(2,3-difluoro-4-methoxyphenyl)imidazo[1,2-a]pyrazin-8-yl)amino)-2-methylbenzoyl)piperazin-1-yl)((3aR,7aS)-2,2-dimethyltetrahydro-[1,3]dioxolo[4,5-c]pyridin-3a(4H)-yl)methanone], the IC90 under setting [1] was 0.33 µM.
